US9963467B2, “Boronic acid derivatives and therapeutic uses thereof” (Rempex Pharmaceuticals, Inc., priority 2014, dated 2018)

Key:
[1] = system: KP1086 (OXA-48); test: Biapenem potentiation (MPC@1), KP1086; settings: for BPM MPC1 OXA-48 KP1086: BLI with biapenem at 1 μg/mL
[2] = system: KP1004 (KPC-2); test: Biapenem potentiation (MPC@1), KP1004; settings: for BPM MPC1 KP1004 KPC-2: BLI with biapenem at 1 μg/mL
[3] = Serum stability of prodrugs, rat serum; format: in vitro ADME; settings: theoretical initial conc. 40 ug/mL; for Measured Initial Conc. in Serum: 37 degrees; for Conc. at t = 2 h / Conc. at t = 4 h: prodrug
Procedure: (§1) Prodrug strategy is one of the ways to achieve or increase oral bioavailability for therapeutic drugs. […] After a prodrug molecule is absorbed into systemic circulation, it should be hydrolyzed in the blood in order to release the active form. Hydrolysis of several prodrugs by rat and human serum were evaluated.
(§2) For all stability experiments the test compounds were treated with rat or human serum in Eppendorf tubes. Typically, 992 μl of serum was prewarmed at 37 degrees for 2 minutes and then 8 μl of a compound (at 5 mg/ml, 125×) was added to it to get a final concentration of […] and immediately mixed. Alternatively, serum stability might be tested at 1 mg/ml. […] After vortexing for 30 seconds, the tube was centrifuged in a microcentrifuge for 10 minutes at 15K rpm. Next, 100 μl of the supernatant was combined with 600 μl of water and injected on LC-MS using 0.1% formic acid in water for mobile phase A and 0.1% formic acid in methanol for mobile phase B on an ACE 5 C18 2.1×100 mm column with a 10 μL injection. The flow rate and gradient were adjusted as needed to give the desired resolution and run time. The pH of the mobile phase was adjusted if needed to improve the chromatography.
(§3) The time course of both the disappearance of a prodrug and the appearance of the active form of that prodrug is presented in Table 6 and Table 7. The active metabolites for all of the listed prodrugs are corresponding parent drugs

[4] = Serum stability of prodrugs, human serum; format: in vitro ADME; settings: for Measured Initial Conc. in Serum / Conc. at t = 2 h / Conc. at t = 4 h: human serum, theoretical initial conc. 40 ug/mL; for Measured Initial Conc. in Serum: 37 degrees; for Conc. at t = 2 h / Conc. at t = 4 h: prodrug
Procedure: as §1, §2, §3

[5] = system: ec302 (TEM-10); test: Tigemonam potentiation (MPC@4), ec302; format: cell-based
[6] = system: ec302 (TEM-10); test: Aztreonam potentiation (MPC@4), ec302; format: cell-based; settings: BLI with aztreonam at 4 μg/mL
[7] = target: P99 (Enterobacter cloacae, UniProt P05364); test: Ki, nitrocefin cleavage by purified enzyme, P99; format: biochemical; settings: nitrocefin reporter substrate; read-out: Ki (P99, NCF)
Procedure: (§4) Purified enzymes were mixed with various concentrations of inhibitors in reaction buffer and incubated for 10 min at room temperature. Nitrocefin was added and substrate cleavage profiles were recorded at 490 nm every 10 sec for 10 min.

[8] = system: EC1010 (CMY-6); test: organism not typed; format: cell-based
[9] = target: Pa AmpC (Pseudomonas aeruginosa, UniProt P24735); test: Ki, nitrocefin cleavage by purified enzyme, Pa AmpC; format: biochemical; settings: nitrocefin reporter substrate; read-out: Ki (Pa AmpC, NCF)
Procedure: Ki values of inhibition of purified class A, C and D enzymes were determined spectrophotometrically using nitrocefin as reporter substrate. Purified enzymes were mixed with various concentrations of inhibitors in reaction buffer and incubated for 10 min at room temperature. Nitrocefin was added and substrate cleavage profiles were recorded at 490 nm every 10 sec for 10 min. These experiments confirmed that the described compounds are inhibitors with a broad-spectrum of activity towards various β-lactamases.

[10] = system: ec308 (SHV-5); test: Tigemonam potentiation (MPC@4), ec308; format: cell-based
[11] = system: KP1010 (SHV-12); test: Tigemonam potentiation (MPC@4), KP1010; format: cell-based
[12] = target: OXA-48 (Klebsiella pneumoniae, UniProt Q6XEC0); test: Ki, nitrocefin cleavage by purified enzyme, OXA-48; format: biochemical; settings: nitrocefin reporter substrate; read-out: Ki (OXA-48, NCF)
Procedure: as §4

[13] = system: KP1005 (CTX-M-14); test: Tigemonam potentiation (MPC@4), KP1005; format: cell-based; settings: BLI with tigemonam at 4 μg/mL
[14] = target: KPC-2 (Klebsiella pneumoniae, UniProt Q9F663); test: Ki, nitrocefin cleavage by purified enzyme, KPC-2; format: biochemical; settings: nitrocefin reporter substrate; read-out: Ki (KPC-2, NCF)
Procedure: as §4

[15] = target: SHV-12 (Klebsiella pneumoniae, UniProt P0AD64, E235K/G234S/L31Q); test: Ki, nitrocefin cleavage by purified enzyme, SHV-12; format: biochemical; settings: nitrocefin reporter substrate; read-out: Ki (SHV-12, NCF)
Procedure: as §4

[16] = system: ECL1002; test: Tigemonam potentiation (MPC@4), ECL1002; format: cell-based; settings: BLI with tigemonam at 4 μg/mL
[17] = system: EC1010 (CMY-6); test: Tigemonam potentiation (MPC@4), EC1010; format: cell-based; settings: BLI with tigemonam at 4 μg/mL
[18] = target: CTX-M-14 (Escherichia coli, UniProt Q9L5C7); test: Ki, nitrocefin cleavage by purified enzyme, CTX-M-14; format: biochemical; settings: nitrocefin reporter substrate; read-out: Ki (CTX-M-14, NCF)
Procedure: as §4

[19] = system: KP1009 (CTX-M-15); test: Tigemonam potentiation (MPC@4), KP1009; format: cell-based; settings: BLI with tigemonam at 4 μg/mL
[20] = system: ECL1002; test: Aztreonam potentiation (MPC@4), ECL1002; format: cell-based; settings: BLI with aztreonam at 4 μg/mL

Sequence of Pa AmpC (P24735 27-397): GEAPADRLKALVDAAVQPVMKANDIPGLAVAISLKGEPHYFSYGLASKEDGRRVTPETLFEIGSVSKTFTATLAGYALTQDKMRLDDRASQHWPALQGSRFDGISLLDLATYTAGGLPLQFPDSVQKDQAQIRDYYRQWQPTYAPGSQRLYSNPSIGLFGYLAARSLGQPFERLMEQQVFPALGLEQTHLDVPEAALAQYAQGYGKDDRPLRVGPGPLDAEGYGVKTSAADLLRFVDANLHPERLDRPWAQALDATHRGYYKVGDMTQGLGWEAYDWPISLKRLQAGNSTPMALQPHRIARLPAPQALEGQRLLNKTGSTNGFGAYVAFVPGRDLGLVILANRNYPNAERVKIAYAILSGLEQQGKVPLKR
Sequence of SHV-12 (P0AD64 22-286 L31Q/G234S/E235K): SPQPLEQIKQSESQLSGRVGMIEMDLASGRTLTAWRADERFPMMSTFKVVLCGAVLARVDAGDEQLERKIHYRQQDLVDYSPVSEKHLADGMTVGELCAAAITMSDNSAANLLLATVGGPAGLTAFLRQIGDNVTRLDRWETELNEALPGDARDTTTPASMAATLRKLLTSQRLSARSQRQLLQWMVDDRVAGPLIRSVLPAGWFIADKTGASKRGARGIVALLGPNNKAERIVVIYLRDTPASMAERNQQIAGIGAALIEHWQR
Sequence of P99 (P05364 21-381): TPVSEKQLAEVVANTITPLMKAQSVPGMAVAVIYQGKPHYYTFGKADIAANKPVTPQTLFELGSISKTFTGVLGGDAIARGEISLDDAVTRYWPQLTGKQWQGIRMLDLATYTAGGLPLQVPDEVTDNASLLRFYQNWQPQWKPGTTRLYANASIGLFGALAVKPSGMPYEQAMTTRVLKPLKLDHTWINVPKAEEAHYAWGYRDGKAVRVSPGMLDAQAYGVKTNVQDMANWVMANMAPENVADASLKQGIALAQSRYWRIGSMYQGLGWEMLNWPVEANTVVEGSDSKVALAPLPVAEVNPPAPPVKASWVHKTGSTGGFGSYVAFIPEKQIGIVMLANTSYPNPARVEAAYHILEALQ
Sequence of CTX-M-14 (Q9L5C7 29-291): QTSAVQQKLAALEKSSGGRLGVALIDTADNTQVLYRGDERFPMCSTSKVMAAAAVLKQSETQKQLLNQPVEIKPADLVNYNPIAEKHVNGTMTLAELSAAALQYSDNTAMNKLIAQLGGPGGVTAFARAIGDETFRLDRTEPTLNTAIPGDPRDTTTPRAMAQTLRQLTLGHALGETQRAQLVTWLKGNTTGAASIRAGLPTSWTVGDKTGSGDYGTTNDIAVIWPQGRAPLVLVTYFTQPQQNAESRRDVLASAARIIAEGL
Sequence of KPC-2 (Q9F663 25-293, looked up, species assumed): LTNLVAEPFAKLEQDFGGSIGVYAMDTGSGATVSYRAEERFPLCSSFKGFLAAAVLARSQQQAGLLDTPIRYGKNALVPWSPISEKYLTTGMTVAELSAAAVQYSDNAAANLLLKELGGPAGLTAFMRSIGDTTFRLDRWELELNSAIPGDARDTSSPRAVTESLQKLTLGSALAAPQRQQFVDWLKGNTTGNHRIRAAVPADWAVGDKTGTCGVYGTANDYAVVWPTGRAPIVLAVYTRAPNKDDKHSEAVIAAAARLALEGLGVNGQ
Sequence of OXA-48 (Q6XEC0 23-265, looked up, species assumed): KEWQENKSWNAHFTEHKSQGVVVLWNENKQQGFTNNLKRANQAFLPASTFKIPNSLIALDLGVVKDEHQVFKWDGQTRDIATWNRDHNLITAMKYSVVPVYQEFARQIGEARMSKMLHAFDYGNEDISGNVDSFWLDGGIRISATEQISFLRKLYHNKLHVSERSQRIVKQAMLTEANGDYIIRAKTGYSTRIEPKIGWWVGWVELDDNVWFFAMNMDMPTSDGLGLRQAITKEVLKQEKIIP

C[C@@H](O)[C@H]1C(=O)N2C(C(=O)[O-])=C(SC3Cn4cnc[n+]4C3)[C@H](C)[C@H]12 (stereo partly drawn) [Biapenem, reference compound]
MIC ([1]; read-out: Biapenem MIC KP1086): > 10 µg/mL | MIC ([2]; read-out: Biapenem MIC KP1004): > 10 µg/mL

CCCC(=O)OCOC(=O)c1c(F)ccc2c1OB(O)[C@@H](NC(=O)CSC)C2 [Compound 13, (R)-butyryloxymethyl 7-fluoro-2-hydroxy-3-(2-(methylthio)acetamido)-3,4-dihydro-2H-benzo[e][1,2]oxaborinine-8-carboxylate]
Measured Initial Conc. in Serum [3]: 28.1 µg/mL | Conc. at t = 2 h [3]: 9.81 (t = 2 h) ug/mL | Conc. at t = 4 h [3]: BQL | Measured Initial Conc. in Serum [4]: 30.6 µg/mL | Conc. at t = 2 h [4]: 1560 ng/mL | Conc. at t = 4 h [4]: BQL | conversion of prodrug to active metabolite ([4]; serum (Tables 6 and 7), 4 hour experiment): completely converted to active metabolite

CSCC(=O)N[C@H]1Cc2ccc(F)c(C(=O)OCOC(C)=O)c2OB1O [Compound 14, (R)-acetoxymethyl 7-fluoro-2-hydroxy-3-(2-(methylthio)acetamido)-3,4-dihydro-2H-benzo[e][1,2]oxaborinine-8-carboxylate]
Measured Initial Conc. in Serum [3]: 39.6 µg/mL | Conc. at t = 2 h [3]: BQL | Conc. at t = 4 h [3]: BQL | Measured Initial Conc. in Serum [4]: 36.8 µg/mL | Conc. at t = 2 h [4]: 5000 ng/mL | Conc. at t = 4 h [4]: 1130 ng/mL

CSCC(=O)N[C@H]1Cc2ccc(F)c(C(=O)OCOC(=O)OC(C)C)c2OB1O [Compound 15, (R)-(isopropoxycarbonyloxy)methyl 7-fluoro-2-hydroxy-3-(2-(methylthio)acetamido)-3,4-dihydro-2H-benzo[e][1,2]oxaborinine-8-carboxylate]
Measured Initial Conc. in Serum [3]: 30.6 µg/mL | Conc. at t = 2 h [3]: BQL | Conc. at t = 4 h [3]: BQL | Measured Initial Conc. in Serum [4]: 33.2 µg/mL | Conc. at t = 2 h [4]: 12800 ng/mL | Conc. at t = 4 h [4]: 5320 ng/mL

COc1ccc2c(c1C(=O)O)OB(O)[C@@H](NC(=O)CSC(F)F)C2 [Compound 25, (R)-3-(2-(difluoromethylthio)acetamido)-2-hydroxy-7-methoxy-3,4-dihydro-2H-benzo[e][1,2]oxaborinine-8-carboxylic acid]
TIG MPC4 TEM-10 ec302 [5]: Y (key: X: MIC of less than 1 ng/mL; Y: MIC of 1 μg/mL to 10 μg/mL; Z: MIC of greater than 10 μg/mL) | BPM MPC1 OXA-48 KP1086 [1]: Z (MIC of greater than 10 μg/mL) | AZT MPC4 TEM-10 ec302 [6]: X (MIC of less than 1 ng/mL) | Ki [7]: 1 to 10 nM | AZT MPC4 CMY-6 EC1010 [8]: Y (key: X: MIC of less than 1 ng/mL; Y: MIC of 1 μg/mL to 10 μg/mL; Z: MIC of greater than 10 μg/mL) | Ki [9]: > 10 nM | TIG MPC4 SHV-5 ec308 [10]: X (key: X: MIC of less than 1 μg/mL; Y: MIC of 1 μg/mL to 10 μg/mL; Z: MIC of greater than 10 μg/mL) | TIG MPC4 SHV-12 KP1010 [11]: X (key: X: MIC of less than 1 μg/mL; Y: MIC of 1 μg/mL to 10 μg/mL; Z: MIC of greater than 10 μg/mL) | Ki [12]: < 1 nM | TIG MPC4 CTX-M-14 KP1005 [13]: X (MIC of less than 1 μg/mL) | Ki [14]: 1 to 10 nM | Ki [15]: < 1 nM | TIG MPC4 ECL1002 [16]: X (MIC of less than 1 μg/mL) | TIG MPC4 CMY-6 EC1010 [17]: X (MIC of less than 1 μg/mL) | Ki [18]: < 1 nM | BPM MPC1 KP1004 KPC-2 [2]: X (MIC of less than 1 μg/mL) | TIG MPC4 CTX-M-15 KP1009 [19]: X (MIC of less than 1 μg/mL) | AZT MPC4 ECL1002 [20]: Y (MIC of 1 μg/mL to 10 μg/mL)

COc1ccc2c(c1C(=O)O)OB(O)[C@@H](NC(=O)CSC1CNC1)C2 [Compound 26, (R)-3-(2-(azetidin-3-ylthio)acetamido)-2-hydroxy-7-methoxy-3,4-dihydro-2H-benzo[e][1,2]oxaborinine-8-carboxylic acid]
TIG MPC4 TEM-10 ec302 [5]: Y (key: X: MIC of less than 1 ng/mL; Y: MIC of 1 μg/mL to 10 μg/mL; Z: MIC of greater than 10 μg/mL) | BPM MPC1 OXA-48 KP1086 [1]: Y (MIC of 1 μg/mL to 10 μg/mL) | AZT MPC4 TEM-10 ec302 [6]: Y (MIC of 1 μg/mL to 10 μg/mL) | Ki [7]: > 10 nM | AZT MPC4 CMY-6 EC1010 [8]: Y (key: X: MIC of less than 1 ng/mL; Y: MIC of 1 μg/mL to 10 μg/mL; Z: MIC of greater than 10 μg/mL) | Ki [9]: > 10 nM | TIG MPC4 SHV-5 ec308 [10]: X (key: X: MIC of less than 1 μg/mL; Y: MIC of 1 μg/mL to 10 μg/mL; Z: MIC of greater than 10 μg/mL) | TIG MPC4 SHV-12 KP1010 [11]: X (key: X: MIC of less than 1 μg/mL; Y: MIC of 1 μg/mL to 10 μg/mL; Z: MIC of greater than 10 μg/mL) | Ki [12]: 1 to 10 nM | TIG MPC4 CTX-M-14 KP1005 [13]: X (MIC of less than 1 μg/mL) | Ki [14]: > 10 nM | Ki [15]: < 1 nM | TIG MPC4 ECL1002 [16]: X (MIC of less than 1 μg/mL) | TIG MPC4 CMY-6 EC1010 [17]: X (MIC of less than 1 μg/mL) | Ki [18]: < 1 nM | BPM MPC1 KP1004 KPC-2 [2]: X (MIC of less than 1 μg/mL) | TIG MPC4 CTX-M-15 KP1009 [19]: X (MIC of less than 1 μg/mL) | AZT MPC4 ECL1002 [20]: Y (MIC of 1 μg/mL to 10 μg/mL)

COc1ccc2c(c1C(=O)O)OB(O)[C@@H](NC(=O)CC(N)=O)C2 [Compound 27, (R)-3-(3-amino-3-oxopropanamido)-2-hydroxy-7-methoxy-3,4-dihydro-2H-benzo[e][1,2]oxaborinine-8-carboxylic acid]
TIG MPC4 TEM-10 ec302 [5]: Z (key: X: MIC of less than 1 ng/mL; Y: MIC of 1 μg/mL to 10 μg/mL; Z: MIC of greater than 10 μg/mL) | BPM MPC1 OXA-48 KP1086 [1]: Y (MIC of 1 μg/mL to 10 μg/mL) | AZT MPC4 TEM-10 ec302 [6]: Y (MIC of 1 μg/mL to 10 μg/mL) | Ki [7]: > 10 nM | AZT MPC4 CMY-6 EC1010 [8]: Y (key: X: MIC of less than 1 ng/mL; Y: MIC of 1 μg/mL to 10 μg/mL; Z: MIC of greater than 10 μg/mL) | Ki [9]: > 10 nM | TIG MPC4 SHV-5 ec308 [10]: X (key: X: MIC of less than 1 μg/mL; Y: MIC of 1 μg/mL to 10 μg/mL; Z: MIC of greater than 10 μg/mL) | TIG MPC4 SHV-12 KP1010 [11]: X (key: X: MIC of less than 1 μg/mL; Y: MIC of 1 μg/mL to 10 μg/mL; Z: MIC of greater than 10 μg/mL) | Ki [12]: < 1 nM | TIG MPC4 CTX-M-14 KP1005 [13]: Y (MIC of 1 μg/mL to 10 μg/mL) | Ki [14]: > 10 nM | Ki [15]: < 1 nM | TIG MPC4 ECL1002 [16]: X (MIC of less than 1 μg/mL) | TIG MPC4 CMY-6 EC1010 [17]: X (MIC of less than 1 μg/mL) | Ki [18]: < 1 nM | BPM MPC1 KP1004 KPC-2 [2]: X (MIC of less than 1 μg/mL) | TIG MPC4 CTX-M-15 KP1009 [19]: X (MIC of less than 1 μg/mL) | AZT MPC4 ECL1002 [20]: Y (MIC of 1 μg/mL to 10 μg/mL)
